Laboratory results taken from ChEMBL document CHEMBL4823256 (J Med Chem, 2021).

Assays:
[1] = system: Respiratory syncytial virus; test: microbe, parasite or virus in culture; conditions: human respiratory syncytial virus, Primary bronchial epithelial cell, 72 h
Human orthopneumovirus [2] = test: microbe, parasite or virus in culture; conditions: human respiratory syncytial virus, A2, HEp-2, 96 h
in vitro [3] = conditions: human, HEp-2 cells
in vitro [4] = conditions: human, MT4 cells
Hepatitis C virus = test: microbe, parasite or virus in culture; conditions: subtype 1b, Huh-7, 72 h
in vitro [5] = conditions: human, HEp-2 cells; remark: listed apart in the source
in vivo [6] = conditions: cynomolgus monkey, po, 20 mg/kg
in vitro [7] = conditions: human, Caco-2
in vivo [8] = conditions: Sprague-Dawley, rat, po, 8 mg/kg
in vitro [9] = conditions: human, Huh-7 cells
in vitro [10] = conditions: human, Caco-2; remark: listed apart in the source
in vivo [11] = conditions: cynomolgus monkey, iv, 10 mg/kg
in vivo [12] = conditions: cynomolgus monkey, iv, 10 mg/kg; remark: listed apart in the source
in vivo [13] = conditions: chlorocebus sabaeus, iv, 10 mg/kg
in vivo [14] = conditions: chlorocebus sabaeus, iv, 10 mg/kg; remark: listed apart in the source
Human orthopneumovirus [15] = conditions: hep-2
[16] = system: Respiratory syncytial virus; conditions: primary bronchial epithelial cell
cells [17] = conditions: Homo sapiens, Primary bronchial epithelial cell, 48 h
in vivo [18] = conditions: chlorocebus sabaeus, iv, 10 mg/kg; remark: listed apart in the source
in vivo [19] = conditions: cynomolgus monkey, iv, 10 mg/kg; remark: listed apart in the source
in vivo [20] = conditions: chlorocebus sabaeus, iv, 10 mg/kg; remark: listed apart in the source
in vivo [21] = conditions: chlorocebus sabaeus, iv, 10 mg/kg; remark: listed apart in the source
clinical [22] = conditions: human, in vivo, iv, 75 mg
clinical [23] = conditions: human, in vivo, iv, 75 mg; remark: listed apart in the source
in vivo [24] = conditions: cynomolgus monkey, iv, 10 mg/kg; remark: listed apart in the source
cells [25] = conditions: Homo sapiens, HEp-2, 48 h
in vivo [26] = conditions: cynomolgus monkey, iv, 10 mg/kg; remark: listed apart in the source
in vivo [27] = conditions: cynomolgus monkey, iv, 20 mg/kg
in vivo [28] = conditions: dog, po
in vivo [29] = conditions: cynomolgus monkey, iv, 20 mg/kg; remark: listed apart in the source

SMILES | EC50 [1] [nM] | EC50 (Human orthopneumovirus [2]) [nM] | CC50 (in vitro [3]) [nM] | selectivity ratio (in vitro [5]; Ratio CC50/EC50) | other results
CCC(CC)COC(=O)[C@H](C)N[P@](=O)(OC[C@H]1O[C@@](C#N)(c2ccc3c(N)ncnn23)[C@H](O)[C@@H]1O)Oc1ccccc1 (stereo in doubt; 18j) | 69 | 27 | – | – | –
Nc1ncnn2c([C@@H]3O[C@H](CO)[C@@H](O)[C@H]3O)ccc12 | – | > 50000 | 36 | – | CC50 at 120 h (in vitro [4]): < 10 nM; EC50 (Hepatitis C virus): 3.5 nM
CCC(CC)OC(=O)[C@H](C)NP(=O)(OC[C@H]1O[C@@](C#N)(c2ccc3c(N)ncnn23)[C@H](O)[C@@H]1O)Oc1ccccc1 (some centres not stated) | > 5000 | 310 | > 100000 | 323 | –
CC(C)C(=O)OC[C@H]1O[C@@](C#N)(c2ccc3c(N)ncnn23)[C@H](OC(=O)C(C)C)[C@@H]1OC(=O)C(C)C | – | 260 | 81000 | – | bioavailability (in vivo [6]): 28%; Papp B→A (in vitro [7]): 1.5 ×10⁻⁶ cm/s; bioavailability (in vivo [8]): 57%
CCOC(=O)[C@H](C)NP(=O)(N[C@@H](C)C(=O)OCC)OC[C@H]1O[C@@](C#N)(c2ccc3c(N)ncnn23)[C@H](O)[C@@H]1O | – | 6480 | > 100000 | > 15 | –
C[C@H](NP(=O)(OC[C@H]1O[C@@](C#N)(c2ccc3c(N)ncnn23)[C@H](O)[C@@H]1O)Oc1ccccc1)C(=O)OCC1CC1 (some centres not stated) | 620 | 44 | 50000 | – | selectivity ratio (in vitro [5]): 1140
C#C[C@@]1(c2ccc3c(N)ncnn23)O[C@H](CO)[C@@H](O)[C@H]1O | – | 34000 | > 100000 | – | CC50 at 120 h (in vitro [4]): > 50000 nM; EC50 (Hepatitis C virus): > 89000 nM; CC50 at 72 h (in vitro [9]): > 89000 nM
C[C@H](NP(=O)(OC[C@H]1O[C@@](C#N)(c2ccc3c(N)ncnn23)[C@H](O)[C@@H]1O)Oc1ccccc1)C(=O)OC1CCCC1 (some centres not stated) | 350 | 170 | > 80000 | 471 | –
C[C@H](NP(=O)(OC[C@H]1O[C@@](C#N)(c2ccc3c(N)ncnn23)[C@H](O)[C@@H]1O)Oc1ccccc1)C(=O)OC1CCC1 (some centres not stated) | 420 | 75 | 34000 | 453 | –
CCC(=O)OC[C@H]1O[C@@](C#N)(c2ccc3c(N)ncnn23)[C@H](OC(=O)CC)[C@@H]1OC(=O)CC | – | 430 | > 100000 | – | Papp A→B (in vitro [10]): < 0.1 ×10⁻⁶ cm/s; Papp B→A (in vitro [7]): 0.26 ×10⁻⁶ cm/s
CC(C)[C@H](N)C(=O)OC[C@H]1O[C@@](C#N)(c2ccc3c(N)ncnn23)[C@H](O)[C@@H]1O | – | 1110 | > 100000 | – | Papp A→B (in vitro [10]): 0.55 ×10⁻⁶ cm/s; Papp B→A (in vitro [7]): 0.45 ×10⁻⁶ cm/s
CC(C)(C)C(=O)SCCOP(=O)(OCCSC(=O)C(C)(C)C)OC[C@H]1O[C@@](C#N)(c2ccc3c(N)ncnn23)[C@H](O)[C@@H]1O | – | 150 | 8700 | – | selectivity ratio (in vitro [5]): 58
CC(=O)OC[C@H]1O[C@@](C#N)(c2ccc3c(N)ncnn23)[C@H](OC(C)=O)[C@@H]1OC(C)=O | – | 820 | > 100000 | – | Papp A→B (in vitro [10]): 0.9 ×10⁻⁶ cm/s; Papp B→A (in vitro [7]): 1.9 ×10⁻⁶ cm/s
CC(C)OC(=O)[C@H](C)NP(=O)(OC[C@H]1O[C@@](C#N)(c2ccc3c(N)ncnn23)[C@H](O)[C@@H]1O)Oc1ccccc1 (some centres not stated) | 2500 | 360 | > 100000 | > 277 | –
CCOC(=O)[C@H](C)NP(=O)(OC[C@H]1O[C@@](C#N)(c2ccc3c(N)ncnn23)[C@H](O)[C@@H]1O)Oc1ccccc1 (some centres not stated) | 850 | 300 | > 73000 | > 243 | –
CCC(CC)COC(=O)[C@H](C)N[P@](=O)(OC[C@H]1O[C@@](C#N)(c2ccc3c(N)ncnn23)[C@H](O)[C@@H]1O)Oc1ccccc1 (stereo in doubt) | – | – | – | – | AUC(0-inf) at 0.5 h (in vivo [11]): 8.8 µM·h; Cmax at 0.5 h (in vivo [12]): 22.7 µM; AUC(0-inf) at 0.5 h (in vivo [13]): 7.9 µM·h; half-life at 0.5 h (in vivo [14]): 48 min; EC50 (Human orthopneumovirus [15]): 15 nM; EC50 [16]: 49 nM; IC50 (cells [17]): 140 nM; clearance at 0.5 h (in vivo [18]): 35.5 mL/min/kg; half-life at 0.5 h (in vivo [19]): 24 min; Cmax at 0.5 h (in vivo [20]): 12.6 µM; bioavailability (in vivo [6]): < 1%; Vd at 0.5 h (in vivo [21]): 0.94 L/kg; Cmax at 0.5 h (clinical [22]): 5 µM; Cmax at 1 h (clinical [23]): < 1 µM; Vd at 0.5 h (in vivo [24]): 0.45 L/kg; IC50 (cells [25]): 110 nM; clearance at 0.5 h (in vivo [26]): 32 mL/min/kg
C[C@@]1(O)[C@H](O)[C@@H](CO)O[C@@]1(C#N)c1ccc2c(N)ncnn12 | – | > 100000 | > 100000 | – | CC50 at 120 h (in vitro [4]): > 200000 nM; EC50 (Hepatitis C virus): > 89000 nM; CC50 at 72 h (in vitro [9]): > 89000 nM
C[C@@]1(c2ccc3c(N)ncnn23)O[C@H](CO)[C@@H](O)[C@H]1O | – | 5500 | – | – | CC50 at 120 h (in vitro [4]): 4500 nM; CC50 at 72 h (in vitro [9]): > 45000 nM
CCC(CC)COC(=O)[C@H](C)N[P@@](=O)(OC[C@H]1O[C@@](C#N)(c2ccc3c(N)ncnn23)[C@H](O)[C@@H]1O)Oc1ccccc1 | 65 | 28 | 26000 | – | –
C#C[C@@]1(c2ccc3c(N)ncnn23)O[C@H](COP(=O)(N[C@@H](C)C(=O)OCC(CC)CC)Oc2ccccc2)[C@@H](O)[C@H]1O (some centres not stated) | – | 750 | > 100000 | > 133 | –
C[C@H](NP(=O)(OC[C@H]1O[C@@](C#N)(c2ccc3c(N)ncnn23)[C@H](O)[C@@H]1O)Oc1ccccc1)C(=O)OC1CCCCCCC1 (some centres not stated) | – | 28 | 48000 | – | selectivity ratio (in vitro [5]): 1710
C[C@H](NP(=O)(OC[C@H]1O[C@@](C#N)(c2ccc3c(N)ncnn23)[C@H](O)[C@@H]1O)Oc1ccccc1)C(=O)OC(C)(C)C (some centres not stated) | > 5000 | 4500 | > 100000 | > 22 | –
N#C[C@@]1(c2ccc3c(N)ncnn23)O[C@H](CO)[C@@H](O)[C@H]1O [GS-441524] | 1850 | 530 | > 100000 | – | CC50 at 120 h (in vitro [4]): > 50000 nM; AUC(0-inf) at 0.5 h (in vivo [27]): 123 µM·h; IC50 (cells [17]): 220 nM; bioavailability (in vivo [28]): 89%; Cmax at 0.5 h (in vivo [29]): 79.2 µM; CC50 at 72 h (in vitro [9]): > 89000 nM; bioavailability (in vivo [6]): 3.4%; Papp A→B (in vitro [10]): 0.17 ×10⁻⁶ cm/s; IC50 (cells [25]): 350 nM; Papp B→A (in vitro [7]): 2.1 ×10⁻⁶ cm/s; bioavailability (in vivo [8]): 12%
C[C@H](NP(=O)(OC[C@H]1O[C@@](C#N)(c2ccc3c(N)ncnn23)[C@H](O)[C@@H]1O)Oc1ccccc1)C(=O)OCC(C)(C)C (some centres not stated) | 530 | 50 | 11000 | 220 | –
CCC(CC)COC(=O)[C@H](C)NP(=O)(N[C@@H](C)C(=O)OCC(CC)CC)OC[C@H]1O[C@@](C#N)(c2ccc3c(N)ncnn23)[C@H](O)[C@@H]1O | 170 | 310 | 36000 | – | selectivity ratio (in vitro [5]): 116
C[C@H](NP(=O)(OC[C@H]1O[C@@](C#N)(c2ccc3c(N)ncnn23)[C@H](O)[C@@H]1O)Oc1ccccc1)C(=O)OCC1CCC1 (some centres not stated) | 130 | 24 | 23000 | – | selectivity ratio (in vitro [5]): 958
